# Tested on: HCV pseudoparticles (genotype 1a HCV E1 and E2 envelope, H77C isolate)
# Experiment: microbe, parasite or virus in culture
# Format: cell-based
# Details: Hepatitis C virus, Huh-7, 48 h, HCV pseudoparticle infection of Huh7 cells, luciferase 2 days after infection; average of duplicates
row,Compound,EC50 [nM]
1,CC(C)(CNC(=O)C(=O)NC1CCCCC1)CNC(=O)c1ccc(Nc2nc(NC3(c4ccc(Cl)cc4)CC3)nc(OCC(F)(F)F)n2)cc1 [Compound 1544],0.08
2,CC(C)(CNC(=O)C(=O)Nc1nccs1)CNC(=O)c1ccc(Nc2nc(NC3(c4ccc(Cl)cc4)CC3)nc(OCC(F)(F)F)n2)cc1 [Compound 1547],0.06
3,Cc1ccc(-c2ccc(NC(=O)C(=O)NCC(C)(C)CNC(=O)c3ccc(Nc4nc(NC5(c6ccc(Cl)cc6)CC5)nc(OCC(F)(F)F)n4)cc3)cc2)cc1 [Compound 1565],0.13
4,CC(C)(CNC(=O)C(=O)Nc1ccc2c(c1)Cc1ccccc1-2)CNC(=O)c1ccc(Nc2nc(NC3(c4ccc(Cl)cc4)CC3)nc(OCC(F)(F)F)n2)cc1 [Compound 1570],0.05
5,CC(C)(CNC(=O)C(=O)Nc1ccccc1Cl)CNC(=O)c1ccc(Nc2nc(NC3(c4ccc(Cl)cc4)CC3)nc(OCC(F)(F)F)n2)cc1 [Compound 1571],0.05
6,CC(C)(CNC(=O)C(=O)N1CCc2cc(F)ccc21)CNC(=O)c1ccc(Nc2nc(NC3(c4ccc(Cl)cc4)CC3)nc(OCC(F)(F)F)n2)cc1 [Compound 1585],0.03

# Same assay, conditions: Hepatitis C virus, Huh-7, 48 h, read-out: Activity (EC50 class), HCV pseudoparticle infection of Huh7 cells, luciferase 2 days after infection; EC50 expressed as class A/B
row,Compound,EC50 [nM]
1,O=C(NCC[C@@H](NC(=O)c1ccc(Nc2nc(NC3(c4ccc(Cl)cc4)CC3)nc(OCC(F)(F)F)n2)cc1)C(=O)O)C(=O)Nc1ccccc1-c1ccccc1 [Compound 1532],0.01 to 10
2,O=C(NCC[C@@H](NC(=O)c1ccc(Nc2nc(NC3(c4ccc(Cl)cc4)CC3)nc(OCC(F)(F)F)n2)cc1)C(=O)O)C(=O)Nc1ccccc1Cl [Compound 1534],0.01 to 10
3,COC(=O)[C@@H](CCNC(=O)C(=O)Nc1ccccc1Cl)NC(=O)c1ccc(Nc2nc(NC3(c4ccc(Cl)cc4)CC3)nc(OCC(F)(F)F)n2)cc1 [Compound 1535],0.01 to 10
4,Cc1ccc(NC(=O)C(=O)NCC(C)(C)CNC(=O)c2ccc(Nc3nc(NC4(c5ccc(Cl)cc5)CC4)nc(OCC(F)(F)F)n3)cc2)cc1 [Compound 1536],0.01 to 10
5,CC(C)(CNC(=O)C(=O)Nc1ccccc1)CNC(=O)c1ccc(Nc2nc(NC3(c4ccc(Cl)cc4)CC3)nc(OCC(F)(F)F)n2)cc1 [Compound 1537],0.01 to 10
6,O=C(NCC[C@@H](NC(=O)c1ccc(Nc2nc(NC3(c4ccc(Cl)cc4)CC3)nc(OCC(F)(F)F)n2)cc1)C(=O)O)C(=O)Nc1ccc(F)c(F)c1F [Compound 1538],0.01 to 10
7,CC(C)(CNC(=O)C(=O)Nc1ccc(F)cc1F)CNC(=O)c1ccc(Nc2nc(NC3(c4ccc(Cl)cc4)CC3)nc(OCC(F)(F)F)n2)cc1 [Compound 1539],0.01 to 10
8,CC(C)(CNC(=O)C(=O)Nc1cc(F)cc(F)c1)CNC(=O)c1ccc(Nc2nc(NC3(c4ccc(Cl)cc4)CC3)nc(OCC(F)(F)F)n2)cc1 [Compound 1540],0.01 to 10
9,Cc1ccc(NC(=O)C(=O)NCC(C)(C)CNC(=O)c2ccc(Nc3nc(NC4(c5ccc(Cl)cc5)CC4)nc(OCC(F)(F)F)n3)cc2)cc1Cl [Compound 1541],0.01 to 10
10,CC(C)(CNC(=O)C(=O)Nc1ccc(-c2ccc(C(=O)O)cc2)cc1)CNC(=O)c1ccc(Nc2nc(NC3(c4ccc(Cl)cc4)CC3)nc(OCC(F)(F)F)n2)cc1 [Compound 1542],0.01 to 10
11,CC(C)(CNC(=O)C(=O)Nc1ccc(-c2cccc(C(=O)O)c2)cc1)CNC(=O)c1ccc(Nc2nc(NC3(c4ccc(Cl)cc4)CC3)nc(OCC(F)(F)F)n2)cc1 [Compound 1543],0.01 to 10
12,CC(C)(CNC(=O)C(=O)NC1CCCCC1)CNC(=O)c1ccc(Nc2nc(NC3(c4ccc(Cl)cc4)CC3)nc(OCC(F)(F)F)n2)cc1 [Compound 1544],0.01 to 10
13,CC(C)(CNC(=O)C(=O)N1CCc2ccccc2C1)CNC(=O)c1ccc(Nc2nc(NC3(c4ccc(Cl)cc4)CC3)nc(OCC(F)(F)F)n2)cc1 [Compound 1545],0.01 to 10
14,CC(C)(CNC(=O)C(=O)Nc1cccc(F)c1)CNC(=O)c1ccc(Nc2nc(NC3(c4ccc(Cl)cc4)CC3)nc(OCC(F)(F)F)n2)cc1 [Compound 1546],0.01 to 10
15,CC(C)(CNC(=O)C(=O)Nc1nccs1)CNC(=O)c1ccc(Nc2nc(NC3(c4ccc(Cl)cc4)CC3)nc(OCC(F)(F)F)n2)cc1 [Compound 1547],0.01 to 10
16,Cc1cc(NC(=O)C(=O)NCC(C)(C)CNC(=O)c2ccc(Nc3nc(NC4(c5ccc(Cl)cc5)CC4)nc(OCC(F)(F)F)n3)cc2)no1 [Compound 1548],0.01 to 10
17,CC(C)(CNC(=O)C(=O)NCc1ccc(F)cc1)CNC(=O)c1ccc(Nc2nc(NC3(c4ccc(Cl)cc4)CC3)nc(OCC(F)(F)F)n2)cc1 [Compound 1549],0.01 to 10
18,CC(C)(CNC(=O)C(=O)N1CCCCC1)CNC(=O)c1ccc(Nc2nc(NC3(c4ccc(Cl)cc4)CC3)nc(OCC(F)(F)F)n2)cc1 [Compound 1550],0.01 to 10
19,CC(C)CNC(=O)C(=O)NCC(C)(C)CNC(=O)c1ccc(Nc2nc(NC3(c4ccc(Cl)cc4)CC3)nc(OCC(F)(F)F)n2)cc1 [Compound 1551],0.01 to 10
20,"CC(C)(CNC(=O)C(N)=O)CNC(=O)c1ccc(Nc2nc(NC3(c4ccc(Cl)cc4)CC3)nc(OCC(F)(F)F)n2)cc1 [Compound 1552, N^1-(3-(4-((4-((1-(4-chlorophenyl)cyclopropyl)amino)-6-(2,2,2-trifluoroethoxy)-1,3,5-triazin-2-yl)amino)benzamido)-2,2-dimethylpropyl)oxalamide]",0.01 to 10
21,CNC(=O)C(=O)NCC(C)(C)CNC(=O)c1ccc(Nc2nc(NC3(c4ccc(Cl)cc4)CC3)nc(OCC(F)(F)F)n2)cc1 [Compound 1553],0.01 to 10
22,O=C(NCC[C@@H](NC(=O)c1ccc(Nc2nc(NC3(c4ccc(Cl)cc4)CC3)nc(OCC(F)(F)F)n2)cc1)C(=O)O)C(=O)Nc1ccc(Cl)cc1 [Compound 1555],0.01 to 10
23,CC(C)(CNC(=O)C(=O)Nc1ccc(F)c(F)c1)CNC(=O)c1ccc(Nc2nc(NC3(c4ccc(Cl)cc4)CC3)nc(OCC(F)(F)F)n2)cc1 [Compound 1556],0.01 to 10
24,O=C(NCC[C@@H](NC(=O)c1ccc(Nc2nc(NC3(c4ccc(Cl)cc4)CC3)nc(OCC(F)(F)F)n2)cc1)C(=O)O)C(=O)Nc1ccc(-c2ccccc2)cc1 [Compound 1557],0.01 to 10
25,CC(C)(CNC(=O)C(=O)Nc1cc(F)c(F)c(F)c1)CNC(=O)c1ccc(Nc2nc(NC3(c4ccc(Cl)cc4)CC3)nc(OCC(F)(F)F)n2)cc1 [Compound 1558],0.01 to 10

row,Compound,EC50 [nM]
1,CC(C)(CNC(=O)C(=O)Nc1ccc(Cl)cc1)CNC(=O)c1ccc(Nc2nc(NC3(c4ccc(Cl)cc4)CC3)nc(OCC(F)(F)F)n2)cc1 [Compound 1559],0.01 to 10
2,CC(C)(CNC(=O)C(=O)Nc1cccc(Cl)c1)CNC(=O)c1ccc(Nc2nc(NC3(c4ccc(Cl)cc4)CC3)nc(OCC(F)(F)F)n2)cc1 [Compound 1561],0.01 to 10
3,Cc1nc(-c2ccc(NC(=O)C(=O)NCC(C)(C)CNC(=O)c3ccc(Nc4nc(NC5(c6ccc(Cl)cc6)CC5)nc(OCC(F)(F)F)n4)cc3)cc2)no1 [Compound 1563],0.01 to 10
4,CC(C)(CNC(=O)C(=O)Nc1ccc(-c2ccc(-c3ccccc3)cc2)cc1)CNC(=O)c1ccc(Nc2nc(NC3(c4ccc(Cl)cc4)CC3)nc(OCC(F)(F)F)n2)cc1 [Compound 1564],0.01 to 10
5,Cc1ccc(-c2ccc(NC(=O)C(=O)NCC(C)(C)CNC(=O)c3ccc(Nc4nc(NC5(c6ccc(Cl)cc6)CC5)nc(OCC(F)(F)F)n4)cc3)cc2)cc1 [Compound 1565],0.01 to 10
6,O=C(NCC1(CNC(=O)c2ccc(Nc3nc(NC4(c5ccc(Cl)cc5)CC4)nc(OCC(F)(F)F)n3)cc2)CC1)C(=O)Nc1ccc(F)cc1 [Compound 1566],0.01 to 10
7,CC(C)(CNC(=O)C(=O)Nc1ccc2ncoc2c1)CNC(=O)c1ccc(Nc2nc(NC3(c4ccc(Cl)cc4)CC3)nc(OCC(F)(F)F)n2)cc1 [Compound 1567],0.01 to 10
8,CC(C)(CNC(=O)C(=O)Nc1ccc(C(=O)N2CCCCC2)cc1)CNC(=O)c1ccc(Nc2nc(NC3(c4ccc(Cl)cc4)CC3)nc(OCC(F)(F)F)n2)cc1 [Compound 1568],0.01 to 10
9,CC(C)(CNC(=O)C(=O)Nc1ccc(-c2ccc(F)cc2)cc1)CNC(=O)c1ccc(Nc2nc(NC3(c4ccc(Cl)cc4)CC3)nc(OCC(F)(F)F)n2)cc1 [Compound 1569],0.01 to 10
10,CC(C)(CNC(=O)C(=O)Nc1ccc2c(c1)Cc1ccccc1-2)CNC(=O)c1ccc(Nc2nc(NC3(c4ccc(Cl)cc4)CC3)nc(OCC(F)(F)F)n2)cc1 [Compound 1570],0.01 to 10
11,CC(C)(CNC(=O)C(=O)Nc1ccccc1Cl)CNC(=O)c1ccc(Nc2nc(NC3(c4ccc(Cl)cc4)CC3)nc(OCC(F)(F)F)n2)cc1 [Compound 1571],0.01 to 10
12,CC(C)(CNC(=O)C(=O)Nc1ccccc1-c1ccccc1)CNC(=O)c1ccc(Nc2nc(NC3(c4ccc(Cl)cc4)CC3)nc(OCC(F)(F)F)n2)cc1 [Compound 1572],0.01 to 10
13,CCCc1ccc(NC(=O)C(=O)NCC(C)(C)CNC(=O)c2ccc(Nc3nc(NC4(c5ccc(Cl)cc5)CC4)nc(OCC(F)(F)F)n3)cc2)cc1 [Compound 1573],0.01 to 10
14,CC(C)(CNC(=O)C(=O)Nc1cccc(C(=O)N2CCCCC2)c1)CNC(=O)c1ccc(Nc2nc(NC3(c4ccc(Cl)cc4)CC3)nc(OCC(F)(F)F)n2)cc1 [Compound 1574],0.01 to 10
15,CC(C)(CNC(=O)C(=O)Nc1ccc(C(C)(C)C)cc1)CNC(=O)c1ccc(Nc2nc(NC3(c4ccc(Cl)cc4)CC3)nc(OCC(F)(F)F)n2)cc1 [Compound 1576],0.01 to 10
16,CC(C)(CNC(=O)C(=O)Nc1ccc2c(c1)oc1ccccc12)CNC(=O)c1ccc(Nc2nc(NC3(c4ccc(Cl)cc4)CC3)nc(OCC(F)(F)F)n2)cc1 [Compound 1577],0.01 to 10
17,CN(C(=O)C(=O)NCC(C)(C)CNC(=O)c1ccc(Nc2nc(NC3(c4ccc(Cl)cc4)CC3)nc(OCC(F)(F)F)n2)cc1)c1cccc(F)c1 [Compound 1578],0.01 to 10
18,CC(C)(CNC(=O)C(=O)Nc1ccc(Cc2ccccc2)cc1)CNC(=O)c1ccc(Nc2nc(NC3(c4ccc(Cl)cc4)CC3)nc(OCC(F)(F)F)n2)cc1 [Compound 1579],0.01 to 10
19,COc1cccc(-c2ccc(NC(=O)C(=O)NCC(C)(C)CNC(=O)c3ccc(Nc4nc(NC5(c6ccc(Cl)cc6)CC5)nc(OCC(F)(F)F)n4)cc3)cc2)c1 [Compound 1581],0.01 to 10
20,CC(C)(CNC(=O)C(=O)Nc1cccc(-c2ccccc2)c1)CNC(=O)c1ccc(Nc2nc(NC3(c4ccc(Cl)cc4)CC3)nc(OCC(F)(F)F)n2)cc1 [Compound 1582],0.01 to 10
21,CCc1ccc(NC(=O)C(=O)NCC(C)(C)CNC(=O)c2ccc(Nc3nc(NC4(c5ccc(Cl)cc5)CC4)nc(OCC(F)(F)F)n3)cc2)cc1 [Compound 1583],0.01 to 10
22,CC(C)(CNC(=O)C(=O)Nc1ccc(C2CCCCC2)cc1)CNC(=O)c1ccc(Nc2nc(NC3(c4ccc(Cl)cc4)CC3)nc(OCC(F)(F)F)n2)cc1 [Compound 1584],0.01 to 10
23,CC(C)(CNC(=O)C(=O)N1CCc2cc(F)ccc21)CNC(=O)c1ccc(Nc2nc(NC3(c4ccc(Cl)cc4)CC3)nc(OCC(F)(F)F)n2)cc1 [Compound 1585],0.01 to 10
24,CC(C)(CNC(=O)C(=O)Nc1cccc(-c2ccc(Cl)cc2)c1)CNC(=O)c1ccc(Nc2nc(NC3(c4ccc(Cl)cc4)CC3)nc(OCC(F)(F)F)n2)cc1 [Compound 1586],0.01 to 10
25,CC(C)(CNC(=O)C(=O)Nc1ccc(-c2cccc(Cl)c2)cc1)CNC(=O)c1ccc(Nc2nc(NC3(c4ccc(Cl)cc4)CC3)nc(OCC(F)(F)F)n2)cc1 [Compound 1588],0.01 to 10

# Source: US8916702B2 (priority 2012, dated 2014)
